This note sets out measurements from PubChem BioAssay (NCI).

Test systems include NCI-H460 lung; M14 melanoma; EKVX NSCLC; SK-MEL-2 melanoma; CAKI-1 renal; NCI-H23 lung; SF-539 CNS; NCI-H522 lung; TK-10 renal; NCI/ADR-RES ovarian.
Common to all, as to experiment: NCI tumour cell line growth inhibition, 48 h

Several values for one entry are separate records, joined by “and”; a condition that tells them apart may be missing. Identical values can stand only once.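 In this assay, cells in 96-well plates receive the compound at five concentrations for 48 hours. Endpoints are linearly interpolated between the surrounding concentrations. Here, GI50 denotes the concentration required for 50% inhibition of growth. TGI: concentration producing complete growth inhibition.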

As for `CCSc1nc(SCC)c2c(-c3ccc(OC)c(OC)c3)c(C#N)c(SCC)nc2n1`, the GI50 was 21.8 µM in the experiment on NCI-H460 lung; 56.2 µM with M14 melanoma; 17.4 µM in the experiment on EKVX NSCLC; 63.8 µM in the experiment with SK-MEL-2 melanoma; 5.39 µM with CAKI-1 renal; 14.9 µM with NCI-H23 lung. For the same compound, the GI50 is 1.95 µM in the experiment with SF-539 CNS, 41.1 µM in the experiment with NCI-H522 lung, 17.5 µM with TK-10 renal and 14.4 µM with NCI/ADR-RES ovarian. Moreover, the TGI with NCI-H460 lung was above 100 µM; with M14 melanoma, above 100 µM; in the experiment with EKVX NSCLC it was 53.3 µM; with SK-MEL-2 melanoma it was above 100 µM; with CAKI-1 renal it was 25.3 µM; in the experiment on NCI-H23 lung it was 53.1 µM. Besides, the TGI in the experiment with SF-539 CNS was 17.2 µM; with NCI-H522 lung, above 100 µM; in the experiment on TK-10 renal it was 53.3 µM; with NCI/ADR-RES ovarian, 45 µM.

As for `NC(=O)Nc1cc(-c2cccc(F)c2)sc1C(=O)N[C@H]1CCCNC1`, the GI50 in the experiment on NCI-H460 lung is 0.207 µM and 0.467 µM; with M14 melanoma, 0.031 µM and 0.102 µM; in the experiment with EKVX NSCLC, 0.576 µM and 1 µM; in the experiment with SK-MEL-2 melanoma it was 0.151 µM and 0.244 µM; in the experiment on CAKI-1 renal it was 0.184 µM and 0.888 µM; in the experiment with NCI-H23 lung, 0.038 µM and 0.193 µM. Further, the GI50 is 0.0192 µM and 0.0616 µM in the experiment with SF-539 CNS; 0.291 µM and 0.273 µM in the experiment with NCI-H522 lung; 0.111 µM and 0.251 µM with TK-10 renal; 2.19 µM and 3.16 µM with NCI/ADR-RES ovarian. In addition, the TGI in the experiment with NCI-H460 lung is 3.32 µM and 4.22 µM; in the experiment with M14 melanoma, 0.476 µM and 0.525 µM; in the experiment with EKVX NSCLC it was > 5.79 µM and 8.28 µM; with SK-MEL-2 melanoma it was > 3.75 µM and 3.15 µM; in the experiment with CAKI-1 renal it was > 3.98 µM and 4.2 µM; with NCI-H23 lung, 1.52 µM and 2.63 µM. Besides, the TGI with SF-539 CNS was 0.17 µM and 0.331 µM; in the experiment with NCI-H522 lung, 4.87 µM and 2.23 µM; with TK-10 renal it was 1.58 µM and 1.38 µM; in the experiment with NCI/ADR-RES ovarian, > 10 µM and 19.8 µM.

With `CN(C)CC1CCC2=C(C1=O)C(c1ccc(Cl)c(Cl)c1)C1=C(CCC(CN(C)C)C1=O)O2` (stereo not given), the GI50 in the experiment on NCI-H460 lung is 10.3 µM; in the experiment with M14 melanoma it was 9.35 µM; in the experiment on EKVX NSCLC it was 18.2 µM; in the experiment with SK-MEL-2 melanoma, 16.6 µM; in the experiment on CAKI-1 renal, 1.58 µM; with NCI-H23 lung it was 3.6 µM. The GI50 in the experiment with SF-539 CNS was 6.01 µM; in the experiment on NCI-H522 lung, 1.81 µM; with TK-10 renal, 0.7 µM; in the experiment on NCI/ADR-RES ovarian it was 19.4 µM. Besides, the TGI with NCI-H460 lung was found to be 24.6 µM; in the experiment with M14 melanoma, 23.4 µM; in the experiment on EKVX NSCLC, 34.1 µM; in the experiment on SK-MEL-2 melanoma, 30.7 µM; with CAKI-1 renal it was 3.03 µM; with NCI-H23 lung, 11.9 µM. Further, the TGI came out at 18.2 µM with SF-539 CNS, 3.37 µM in the experiment with NCI-H522 lung, 1.98 µM in the experiment with TK-10 renal and 57.4 µM in the experiment with NCI/ADR-RES ovarian.

For the compound `COc1ccc(Cl)c(Nc2nc3ccccc3nc2NS(=O)(=O)c2cccc(NC(=O)C(C)(C)N)c2)c1`, the GI50 in the experiment with NCI-H460 lung is 6.51 µM and 4.52 µM; in the experiment with M14 melanoma it was 12.5 µM and > 10 µM; in the experiment with EKVX NSCLC, 6.25 µM and > 10 µM; in the experiment with SK-MEL-2 melanoma, 14.9 µM and > 10 µM; in the experiment with CAKI-1 renal it was 6.49 µM; in the experiment with NCI-H23 lung, 13.2 µM and > 10 µM. Also, the GI50 was 7.35 µM and 4.42 µM with SF-539 CNS; 14.7 µM and > 10 µM in the experiment with NCI-H522 lung; 5.68 µM and 4.24 µM with TK-10 renal; 12.1 µM and > 10 µM in the experiment on NCI/ADR-RES ovarian. Further, the TGI is 20.8 µM and > 10 µM in the experiment with NCI-H460 lung; 29 µM and > 10 µM in the experiment with M14 melanoma; 21 µM and > 10 µM in the experiment on EKVX NSCLC; 32.1 µM and > 10 µM in the experiment with SK-MEL-2 melanoma; above 10 µM in the experiment with CAKI-1 renal; 29.1 µM and > 10 µM with NCI-H23 lung. Further, the TGI with SF-539 CNS was 20.4 µM and > 10 µM; in the experiment on NCI-H522 lung, 30.5 µM and > 10 µM; with TK-10 renal it was 20.1 µM and > 10 µM; in the experiment with NCI/ADR-RES ovarian, 32.3 µM and > 10 µM.

Take `Cc1ccc(C(=O)NC2CCC2)cc1-c1ccc(C(=O)NCC2CC2)cc1`: the GI50 in the experiment with NCI-H460 lung, with M14 melanoma, in the experiment on EKVX NSCLC, with SK-MEL-2 melanoma, in the experiment on CAKI-1 renal and with NCI-H23 lung was above 25 µM throughout. Further, the GI50 in the experiment with SF-539 CNS, in the experiment with NCI-H522 lung, in the experiment with TK-10 renal and with NCI/ADR-RES ovarian was above 25 µM in each case. Further, the TGI with NCI-H460 lung, in the experiment on M14 melanoma, in the experiment on EKVX NSCLC, with SK-MEL-2 melanoma, in the experiment on CAKI-1 renal and in the experiment with NCI-H23 lung was above 25 µM in each case. In addition, the TGI with SF-539 CNS, with NCI-H522 lung, in the experiment on TK-10 renal and in the experiment with NCI/ADR-RES ovarian was above 25 µM each time.

Turning to `NC(=O)c1ccc(-c2nc(-c3ccc4c(c3)OCO4)c(-c3ccccn3)[nH]2)cc1`, the GI50 was > 25 µM and 23.3 µM with NCI-H460 lung; > 25 µM and 38.1 µM with M14 melanoma; > 25 µM and 44.9 µM in the experiment with EKVX NSCLC; > 25 µM and 35.8 µM in the experiment on SK-MEL-2 melanoma; > 25 µM and 22.7 µM with CAKI-1 renal; > 25 µM and 46.3 µM in the experiment with NCI-H23 lung. Further, the GI50 in the experiment with SF-539 CNS is > 25 µM and 49 µM; in the experiment on NCI-H522 lung, > 25 µM and 22.3 µM; in the experiment with TK-10 renal, > 25 µM and 47.7 µM; with NCI/ADR-RES ovarian it was > 25 µM and 32.3 µM. Further, the TGI is above 84.7 µM with NCI-H460 lung; above 100 µM in the experiment on M14 melanoma; above 100 µM in the experiment on EKVX NSCLC; above 100 µM in the experiment on SK-MEL-2 melanoma; above 100 µM in the experiment on CAKI-1 renal; above 100 µM in the experiment with NCI-H23 lung. Further, the TGI was above 100 µM in the experiment with SF-539 CNS; > 25 µM and 72.5 µM in the experiment on NCI-H522 lung; above 100 µM in the experiment with TK-10 renal; above 100 µM with NCI/ADR-RES ovarian.
